According to ChEMBL document CHEMBL2046376, “Synthesis and antimicrobial activity of amide derivatives of polyether antibiotic-salinomycin” (2012):

Columns and labels:
Assay type in all cases: functional
Staphylococcus aureus [1] = assay: Antibacterial activity against Staphylococcus aureus NCTC 4163 assessed as zone of inhibition at 400 ug/disc after 18 hrs by disc diffusion method; conditions: NCTC 4163, 18 h, read-out: DIZ
Staphylococcus aureus [2] = assay: Antibacterial activity against Staphylococcus aureus ATCC 25923 assessed as zone of inhibition at 400 ug/disc after 18 hrs by disc diffusion method; conditions: ATCC 25923, 18 h, read-out: DIZ
Staphylococcus aureus [3] = assay: Antibacterial activity against Staphylococcus aureus ATCC 6538 assessed as zone of inhibition at 400 ug/disc after 18 hrs by disc diffusion method; conditions: ATCC 6538, 18 h, read-out: DIZ
Staphylococcus aureus [4] = assay: Antibacterial activity against Staphylococcus aureus ATCC 29213 assessed as zone of inhibition at 400 ug/disc after 18 hrs by disc diffusion method; conditions: ATCC 29213, 18 h, read-out: DIZ
[5] = tested on: Staphylococcus epidermidis; assay: Antibacterial activity against Staphylococcus epidermidis ATCC 12228 assessed as zone of inhibition at 400 ug/disc after 18 hrs by disc diffusion method; conditions: ATCC 12228, 18 h, read-out: DIZ
[6] = tested on: Staphylococcus epidermidis; assay: Antibacterial activity against Staphylococcus epidermidis ATCC 35984 assessed as zone of inhibition at 400 ug/disc after 18 hrs by disc diffusion method; conditions: ATCC 35984, 18 h, read-out: DIZ
Escherichia coli [7] = assay: Antibacterial activity against Escherichia coli ATCC 10538 assessed as zone of inhibition at 400 ug/disc after 18 hrs by disc diffusion method; conditions: ATCC 10538, 18 h, read-out: DIZ
Escherichia coli [8] = assay: Antibacterial activity against Escherichia coli ATCC 25922 assessed as zone of inhibition at 400 ug/disc after 18 hrs by disc diffusion method; conditions: ATCC 25922, 18 h, read-out: DIZ
Escherichia coli [9] = assay: Antibacterial activity against Escherichia coli NCTC 8196 assessed as zone of inhibition at 400 ug/disc after 18 hrs by disc diffusion method; conditions: NCTC 8196, 18 h, read-out: DIZ
Proteus vulgaris [10] = assay: Antibacterial activity against Proteus vulgaris NCTC 4635 assessed as zone of inhibition at 400 ug/disc after 18 hrs by disc diffusion method; conditions: NCTC 4635, 18 h, read-out: DIZ
Pseudomonas aeruginosa [11] = assay: Antibacterial activity against Pseudomonas aeruginosa ATCC 15442 assessed as zone of inhibition at 400 ug/disc after 18 hrs by disc diffusion method; conditions: ATCC 15442, 18 h, read-out: DIZ
Pseudomonas aeruginosa [12] = assay: Antibacterial activity against Pseudomonas aeruginosa NCTC 6749 assessed as zone of inhibition at 400 ug/disc after 18 hrs by disc diffusion method; conditions: NCTC 6749, 18 h, read-out: DIZ
Pseudomonas aeruginosa [13] = assay: Antibacterial activity against Pseudomonas aeruginosa ATCC 27853 assessed as zone of inhibition at 400 ug/disc after 18 hrs by disc diffusion method; conditions: ATCC 27853, 18 h, read-out: DIZ
[14] = tested on: Bordetella bronchiseptica; assay: Antibacterial activity against Bordetella bronchiseptica ATCC 4617 assessed as zone of inhibition at 400 ug/disc after 18 hrs by disc diffusion method; conditions: ATCC 4617, 18 h, read-out: DIZ
Candida albicans [15] = assay: Antifungal activity against Candida albicans ATCC 10231 after 24 hrs by twofold serial agar dilution technique; conditions: ATCC 10231, 24 h
Candida albicans [16] = assay: Antifungal activity against Candida albicans ATCC 90028 after 24 hrs by twofold serial agar dilution technique; conditions: ATCC 90028, 24 h
Candida parapsilosis = assay: Antifungal activity against Candida parapsilosis ATCC 22019 after 24 hrs by twofold serial agar dilution technique; conditions: Lodderomyces parapsilosis, ATCC 22019, 24 h
Staphylococcus aureus [17] = assay: Antibacterial activity against Staphylococcus aureus NCTC 4163 after 18 hrs by twofold serial agar dilution technique; conditions: NCTC 4163, 18 h
Staphylococcus aureus [18] = assay: Antibacterial activity against Staphylococcus aureus ATCC 25923 after 18 hrs by twofold serial agar dilution technique; conditions: ATCC 25923, 18 h
Staphylococcus aureus [19] = assay: Antibacterial activity against Staphylococcus aureus ATCC 6538 after 18 hrs by twofold serial agar dilution technique; conditions: ATCC 6538, 18 h
Staphylococcus aureus [20] = assay: Antibacterial activity against Staphylococcus aureus ATCC 29213 after 18 hrs by twofold serial agar dilution technique; conditions: ATCC 29213, 18 h
[21] = tested on: Staphylococcus epidermidis; assay: Antibacterial activity against Staphylococcus epidermidis ATCC 12228 after 18 hrs by twofold serial agar dilution technique; conditions: ATCC 12228, 18 h
[22] = tested on: Staphylococcus epidermidis; assay: Antibacterial activity against Staphylococcus epidermidis ATCC 35984 after 18 hrs by twofold serial agar dilution technique; conditions: ATCC 35984, 18 h
Escherichia coli [23] = assay: Antibacterial activity against Escherichia coli ATCC 10538 after 18 hrs by twofold serial agar dilution technique; conditions: ATCC 10538, 18 h
Escherichia coli [24] = assay: Antibacterial activity against Escherichia coli ATCC 25922 after 18 hrs by twofold serial agar dilution technique; conditions: ATCC 25922, 18 h
Escherichia coli [25] = assay: Antibacterial activity against Escherichia coli NCTC 8196 after 18 hrs by twofold serial agar dilution technique; conditions: NCTC 8196, 18 h
Proteus vulgaris [26] = assay: Antibacterial activity against Proteus vulgaris NCTC 4635 after 18 hrs by twofold serial agar dilution technique; conditions: NCTC 4635, 18 h
Pseudomonas aeruginosa [27] = assay: Antibacterial activity against Pseudomonas aeruginosa ATCC 15442 after 18 hrs by twofold serial agar dilution technique; conditions: ATCC 15442, 18 h
Pseudomonas aeruginosa [28] = assay: Antibacterial activity against Pseudomonas aeruginosa NCTC 6749 after 18 hrs by twofold serial agar dilution technique; conditions: NCTC 6749, 18 h
Pseudomonas aeruginosa [29] = assay: Antibacterial activity against Pseudomonas aeruginosa ATCC 27853 after 18 hrs by twofold serial agar dilution technique; conditions: ATCC 27853, 18 h
[30] = tested on: Bordetella bronchiseptica; assay: Antibacterial activity against Bordetella bronchiseptica ATCC 4617 after 18 hrs by twofold serial agar dilution technique; conditions: ATCC 4617, 18 h

Compound	zone of inhibition at 400 µg/disc (Staphylococcus aureus [1]) [mm]	zone of inhibition at 400 µg/disc (Staphylococcus aureus [2]) [mm]	zone of inhibition at 400 µg/disc (Staphylococcus aureus [3]) [mm]	zone of inhibition at 400 µg/disc (Staphylococcus aureus [4]) [mm]	zone of inhibition at 400 µg/disc [5] [mm]	zone of inhibition at 400 µg/disc [6] [mm]	zone of inhibition at 400 µg/disc (Escherichia coli [7]) [mm]	zone of inhibition at 400 µg/disc (Escherichia coli [8]) [mm]	zone of inhibition at 400 µg/disc (Escherichia coli [9]) [mm]	zone of inhibition at 400 µg/disc (Proteus vulgaris [10]) [mm]	zone of inhibition at 400 µg/disc (Pseudomonas aeruginosa [11]) [mm]	zone of inhibition at 400 µg/disc (Pseudomonas aeruginosa [12]) [mm]	zone of inhibition at 400 µg/disc (Pseudomonas aeruginosa [13]) [mm]	zone of inhibition at 400 µg/disc [14] [mm]	MIC (Candida albicans [15]) [µg/mL]	MIC (Candida albicans [16]) [µg/mL]	MIC (Candida parapsilosis) [µg/mL]	MIC (Staphylococcus aureus [17]) [µg/mL]	MIC (Staphylococcus aureus [18]) [µg/mL]	MIC (Staphylococcus aureus [19]) [µg/mL]	other results
CCCCNC(=O)[C@H](CC)[C@H]1CC[C@H](C)[C@H]([C@@H](C)[C@H](O)[C@H](C)C(=O)[C@H](CC)[C@H]2O[C@]3(C=C[C@@H](O)[C@]4(CC[C@@](C)([C@H]5CC[C@](O)(CC)[C@H](C)O5)O4)O3)[C@H](C)C[C@@H]2C)O1	10	10	10	10	10	10	10	10	10	10	10	10	10	10	≥ 256	≥ 256	≥ 256	≥ 256	≥ 256	≥ 256	MIC (Staphylococcus aureus [20]): ≥ 256 µg/mL; MIC [21]: ≥ 256 µg/mL; MIC [22]: ≥ 256 µg/mL; MIC (Escherichia coli [23]): ≥ 256 µg/mL; MIC (Escherichia coli [24]): ≥ 256 µg/mL; MIC (Escherichia coli [25]): ≥ 256 µg/mL; MIC (Proteus vulgaris [26]): ≥ 256 µg/mL; MIC (Pseudomonas aeruginosa [27]): ≥ 256 µg/mL; MIC (Pseudomonas aeruginosa [28]): ≥ 256 µg/mL; MIC (Pseudomonas aeruginosa [29]): ≥ 256 µg/mL; MIC [30]: ≥ 256 µg/mL
C=CCNC(=O)[C@H](CC)[C@H]1CC[C@H](C)[C@H]([C@@H](C)[C@H](O)[C@H](C)C(=O)[C@H](CC)[C@H]2O[C@]3(C=C[C@@H](O)[C@]4(CC[C@@](C)([C@H]5CC[C@](O)(CC)[C@H](C)O5)O4)O3)[C@H](C)C[C@@H]2C)O1 [SALINOMYCIN ALLYL AMIDE]	10	10	10	10	10	10	10	10	10	10	10	10	10	10	≥ 256	≥ 256	≥ 256	≥ 256	≥ 256	≥ 256	MIC (Staphylococcus aureus [20]): ≥ 256 µg/mL; MIC [21]: ≥ 256 µg/mL; MIC [22]: ≥ 256 µg/mL; MIC (Escherichia coli [23]): ≥ 256 µg/mL; MIC (Escherichia coli [24]): ≥ 256 µg/mL; MIC (Escherichia coli [25]): ≥ 256 µg/mL; MIC (Proteus vulgaris [26]): ≥ 256 µg/mL; MIC (Pseudomonas aeruginosa [27]): ≥ 256 µg/mL; MIC (Pseudomonas aeruginosa [28]): ≥ 256 µg/mL; MIC (Pseudomonas aeruginosa [29]): ≥ 256 µg/mL; MIC [30]: ≥ 256 µg/mL
